Test results as given in EP4775580A1, “COMPOUND, PHARMACEUTICAL COMPOSITION COMPRISING SAME, AND USE THEREOF” (Euregen Biopharma Co., Ltd., priority 2023, dated 2025).
Where two headings read alike, the source gives them in different places.

Assays:
OCI-AML-3 cells = test: Antiproliferative activity, CellTiter-Glo, 7 days (Test Example 2), OCI-AML-3; type: cell-based; conditions: Homo sapiens, 168 h, 7 days incubation, read-out: OCI-AML3 IC50
From the text: [0134] 1. Experimental Principle: MV-4-11, Molm-13, and OCI-AML-3 cells are human hematologic tumor cell lines harboring the Menin-MLL fusion. HL-60 is a wild-type human hematologic tumor cell line without Menin-MLL fusion. […] 2. Experimental Materials: MV-4-11, Molm-13, OCI-AML-3, and HL-60 cells were all purchased from Cobioer; CellTiter-Glo® was purchased from Promega (Cat. #G7571); RPMI-1640 was purchased from Viva Cell (Cat. #C3010-0500); IMDM was purchased from Viva Cell (Cat. #C3040-0500); fetal bovine serum (FBS) was purchased from Biosera (Cat. #FB-1058/500); penicillin-streptomycin was purchased from BasalMedia (Cat. #S110JV); 0.25% Trypsin-EDTA was purchased from BasalMedia (Cat. #S310KJ); dimethyl sulfoxide (DMSO) was purchased from Sinopharm (Cat. #30072418); 96-well plates were purchased from Corning (Cat. #3610); incubator was obtained from PHCbi (Model: MCO-18AC); inverted microscope was obtained from Mingmei (Cat. #MI52-0); automated cell counter was obtained from BodBoge (Model: JSY-SC-031N); microplate reader was obtained from PerkinElmer (Model: Envision); data processing software: GraphPad Prism 8.0. 3. […] After incubation at room temperature for 10 minutes, luminescence values were read using the EnVision microplate reader, and IC50 values were calculated using GraphPad Prism 8.0 software. […]

[1] = Pharmacokinetics in rats after single IV and PO administration (LC-MS/MS); type: in vivo, male SD rats; conditions: SD rats
Description: • 1. Objective: This study aimed to characterize the pharmacokinetic properties of selected compounds from the examples of the present invention in SD rats following single intravenous (IV) injection and oral (PO) administration using LC-MS/MS methodology. • 2. Experimental Materials: Test compounds were prepared according to the examples of the present invention; male SD rats were obtained from the Laboratory Animal Department of Shanghai Institute of Planned Parenthood Research (License No. SCXK(Shanghai)2018-0006) or Shanghai Jihui Laboratory Animal Breeding Co., Ltd. (License No. SCXK(Shanghai)2022-0009). • 3. Experimental Methods: Preparation of 0.5% methylcellulose: 5 g of methylcellulose was weighed and dissolved in 1000 mL of purified water. Preparation of 0.5% methylcellulose (pH = 5.03): 5 g of methylcellulose was weighed and dissolved in 1000 mL of purified water, and the pH was adjusted to 5.03 with 100 mM citric acid.
Preparation of oral formulations: The required amount of test compound was weighed and dissolved in 0.5% methylcellulose solution or 0.5% methylcellulose (pH = 5.03) to obtain a suspension or solution at 1 or 3 mg/mL.
Preparation of intravenous injection formulations: The required amount of test compound (EB229, EB300, EB341, EB342) was weighed and dissolved in 0.5 mL dimethyl sulfoxide to prepare a 4 mg/mL solution. To 0.25 mL of this solution, 0.5 mL of polyethylene glycol 15-hydroxystearate (Solutol) and 4.25 mL of normal saline were added to obtain a 0.2 mg/mL solution. For EB834, 6 mg was weighed and dissolved in 0.1 mL dimethyl sulfoxide, followed by addition of 0.2 mL polyethylene glycol 15-hydroxystearate (Solutol) and 1.7 mL normal saline to obtain a 3 mg/mL solution.
Dosing: Male SD rats were fasted overnight prior to oral (PO) administration; fasting was not required for the single intravenous (IV) injection group. Food was provided 4 hours post-dosing.
Sample Collection: Blood was collected from the jugular vein or other suitable veins, with 0.2 mL collected at each time point. Samples were placed in tubes containing dipotassium ethylenediaminetetraacetate and kept on ice prior to centrifugation. Within 1 hour of blood collection, samples were centrifuged at 6800 × g for 6 minutes at 2-8°C and stored at -80°C.

## CCN(C(=O)c1cc(F)ccc1N1CCN([C@@H]2CCN([C@H](CCCN(C)CCOC)C(C)C)C2)c2ncncc21)C(C)C [Example 3]
OCI-AML-3 cells
  IC50: 103 nM
[1]; PO 30 mg/kg vs IV 3 mg/kg
  PO F: 172%
[1]; rat, in vivo, IV 3 mg/kg, read-out: IV AUC(0-t)
  AUC(0-t): 494 ng·h/mL
[1]; rat, in vivo, IV 3 mg/kg, read-out: IV CL
  clearance: 59.2 mL/min/kg
[1]; rat, in vivo, IV 3 mg/kg, read-out: IV Cmax
  Cmax: 193 ng/mL
[1]; rat, in vivo, IV 3 mg/kg, read-out: IV Vss
  Vd: 203 L/kg
[1]; rat, in vivo, IV 3 mg/kg, read-out: IV t1/2 (converted)
  half-life: 52.9 h
[1]; rat, in vivo, PO 30 mg/kg, 0.5% MC (pH 5.03), read-out: PO AUC(0-t)
  AUC(0-t): 8500 ng·h/mL
[1]; rat, in vivo, PO 30 mg/kg, 0.5% MC (pH 5.03), read-out: PO Cmax
  Cmax: 1140 ng/mL
[1]; rat, in vivo, PO 30 mg/kg, 0.5% MC (pH 5.03), read-out: PO t1/2 (converted)
  half-life: 21.3 h
